ChEMBL document CHEMBL1201862, “PubChem BioAssay data set” (2004)
The source made the active and inactive calls.

Key:
Streptokinase A = target: T1, Streptokinase A (Streptococcus pyogenes serotype M1, UniProt P10520); assay: S. pyogenes streptokinase expression inhibitors, potency, dose response, plasminogen activation absorbance, OD405 (AID 1914); type: functional, Streptococcus pyogenes M1 GAS;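 note: secreted streptokinase activity via plasminogen activation per viability signal from cell pellet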
T1 sequence (P10520 whole entry): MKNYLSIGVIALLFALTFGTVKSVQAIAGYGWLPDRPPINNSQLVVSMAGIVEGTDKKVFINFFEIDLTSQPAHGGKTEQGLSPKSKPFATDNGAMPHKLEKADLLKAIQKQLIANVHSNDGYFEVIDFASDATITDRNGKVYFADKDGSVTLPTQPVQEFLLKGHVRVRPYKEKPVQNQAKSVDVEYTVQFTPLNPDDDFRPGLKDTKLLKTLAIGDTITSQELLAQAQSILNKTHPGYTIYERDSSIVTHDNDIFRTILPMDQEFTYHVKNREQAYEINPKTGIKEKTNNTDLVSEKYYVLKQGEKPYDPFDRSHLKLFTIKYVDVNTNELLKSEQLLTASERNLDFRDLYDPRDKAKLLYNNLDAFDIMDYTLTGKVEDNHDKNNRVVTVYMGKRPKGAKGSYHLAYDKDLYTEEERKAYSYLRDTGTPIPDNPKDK

[1] = target: T2, Histone-lysine N-methyltransferase NSD2 (Homo sapiens, UniProt O96028); type: biochemical
T2 sequence (O96028 whole entry): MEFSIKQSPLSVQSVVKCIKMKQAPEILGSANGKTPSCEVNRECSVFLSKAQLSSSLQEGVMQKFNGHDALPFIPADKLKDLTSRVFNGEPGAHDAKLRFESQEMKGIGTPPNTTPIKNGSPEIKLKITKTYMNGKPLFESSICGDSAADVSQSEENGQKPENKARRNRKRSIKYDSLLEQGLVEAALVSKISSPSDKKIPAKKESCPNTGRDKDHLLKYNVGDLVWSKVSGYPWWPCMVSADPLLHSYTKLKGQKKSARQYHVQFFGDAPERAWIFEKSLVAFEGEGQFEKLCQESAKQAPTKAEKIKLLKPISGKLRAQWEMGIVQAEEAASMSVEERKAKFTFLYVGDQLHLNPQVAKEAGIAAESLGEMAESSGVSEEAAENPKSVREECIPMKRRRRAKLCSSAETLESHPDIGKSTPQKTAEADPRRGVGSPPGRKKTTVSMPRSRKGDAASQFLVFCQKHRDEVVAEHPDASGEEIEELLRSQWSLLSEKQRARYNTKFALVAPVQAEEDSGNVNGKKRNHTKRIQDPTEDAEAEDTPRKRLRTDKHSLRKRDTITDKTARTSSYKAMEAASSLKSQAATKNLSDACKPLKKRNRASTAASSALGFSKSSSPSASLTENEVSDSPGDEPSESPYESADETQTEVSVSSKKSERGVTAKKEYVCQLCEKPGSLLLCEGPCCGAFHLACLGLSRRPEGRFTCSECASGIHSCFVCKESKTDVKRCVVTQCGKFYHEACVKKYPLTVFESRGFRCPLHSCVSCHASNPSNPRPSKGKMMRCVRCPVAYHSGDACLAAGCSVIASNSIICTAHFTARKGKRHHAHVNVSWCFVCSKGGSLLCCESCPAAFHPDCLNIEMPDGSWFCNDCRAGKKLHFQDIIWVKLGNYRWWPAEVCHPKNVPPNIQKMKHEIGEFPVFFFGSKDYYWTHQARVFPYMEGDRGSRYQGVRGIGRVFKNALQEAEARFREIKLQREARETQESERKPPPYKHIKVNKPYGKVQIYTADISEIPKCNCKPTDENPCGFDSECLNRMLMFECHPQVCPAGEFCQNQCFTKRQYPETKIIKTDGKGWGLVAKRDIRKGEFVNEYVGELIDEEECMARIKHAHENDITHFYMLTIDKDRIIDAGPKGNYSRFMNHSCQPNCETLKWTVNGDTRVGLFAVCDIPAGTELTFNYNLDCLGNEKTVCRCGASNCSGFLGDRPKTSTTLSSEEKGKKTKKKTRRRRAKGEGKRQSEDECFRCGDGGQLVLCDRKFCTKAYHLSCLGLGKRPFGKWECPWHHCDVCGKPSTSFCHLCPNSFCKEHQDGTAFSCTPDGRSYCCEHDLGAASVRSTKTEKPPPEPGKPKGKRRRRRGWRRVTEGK

[2] = target: T3, Short transient receptor potential channel 4 (Mus musculus, UniProt Q9QUQ5); assay: mouse TRPC4 channel inhibitors, dose response, cell-based, HEK293 TRPC4/mu-opioid, Fluo-4 calcium (AID 434942); type: functional;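 note: potency of inhibitors blocking the TRPC4 calcium response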
T3 sequence (Q9QUQ5 whole entry): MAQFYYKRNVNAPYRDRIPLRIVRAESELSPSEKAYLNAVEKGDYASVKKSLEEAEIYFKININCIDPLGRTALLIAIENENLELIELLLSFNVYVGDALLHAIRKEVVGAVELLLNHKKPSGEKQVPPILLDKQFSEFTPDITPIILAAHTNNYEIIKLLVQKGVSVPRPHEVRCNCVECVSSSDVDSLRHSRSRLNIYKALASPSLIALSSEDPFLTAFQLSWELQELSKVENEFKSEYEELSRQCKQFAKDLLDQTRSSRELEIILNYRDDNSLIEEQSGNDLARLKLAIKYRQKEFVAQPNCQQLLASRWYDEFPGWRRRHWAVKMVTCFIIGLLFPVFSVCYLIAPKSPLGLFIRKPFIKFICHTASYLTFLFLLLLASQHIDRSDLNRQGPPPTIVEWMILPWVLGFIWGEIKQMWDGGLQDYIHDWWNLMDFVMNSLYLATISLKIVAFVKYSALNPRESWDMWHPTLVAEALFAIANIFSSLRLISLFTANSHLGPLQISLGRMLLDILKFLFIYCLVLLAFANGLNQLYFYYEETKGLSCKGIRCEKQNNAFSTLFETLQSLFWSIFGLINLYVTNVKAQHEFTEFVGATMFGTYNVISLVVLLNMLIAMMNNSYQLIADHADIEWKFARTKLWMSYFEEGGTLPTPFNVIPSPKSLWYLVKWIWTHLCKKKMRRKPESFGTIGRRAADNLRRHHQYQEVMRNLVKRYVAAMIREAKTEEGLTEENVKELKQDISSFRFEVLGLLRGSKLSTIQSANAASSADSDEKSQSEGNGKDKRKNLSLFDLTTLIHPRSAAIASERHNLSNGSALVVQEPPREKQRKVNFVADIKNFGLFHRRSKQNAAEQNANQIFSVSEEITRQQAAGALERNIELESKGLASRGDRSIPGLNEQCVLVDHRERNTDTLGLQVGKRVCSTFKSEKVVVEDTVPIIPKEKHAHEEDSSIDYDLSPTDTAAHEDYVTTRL

Leucine aminopeptidase = target: T4, Leucine aminopeptidase (Plasmodium falciparum 3D7, UniProt Q8IL11); assay: P. falciparum M17LAP inhibitors, primary screen, biochemical, fluorogenic H-Leu-NHMec substrate, 1536-well (AID 1619); type: functional
T4 sequence (Q8IL11 whole entry): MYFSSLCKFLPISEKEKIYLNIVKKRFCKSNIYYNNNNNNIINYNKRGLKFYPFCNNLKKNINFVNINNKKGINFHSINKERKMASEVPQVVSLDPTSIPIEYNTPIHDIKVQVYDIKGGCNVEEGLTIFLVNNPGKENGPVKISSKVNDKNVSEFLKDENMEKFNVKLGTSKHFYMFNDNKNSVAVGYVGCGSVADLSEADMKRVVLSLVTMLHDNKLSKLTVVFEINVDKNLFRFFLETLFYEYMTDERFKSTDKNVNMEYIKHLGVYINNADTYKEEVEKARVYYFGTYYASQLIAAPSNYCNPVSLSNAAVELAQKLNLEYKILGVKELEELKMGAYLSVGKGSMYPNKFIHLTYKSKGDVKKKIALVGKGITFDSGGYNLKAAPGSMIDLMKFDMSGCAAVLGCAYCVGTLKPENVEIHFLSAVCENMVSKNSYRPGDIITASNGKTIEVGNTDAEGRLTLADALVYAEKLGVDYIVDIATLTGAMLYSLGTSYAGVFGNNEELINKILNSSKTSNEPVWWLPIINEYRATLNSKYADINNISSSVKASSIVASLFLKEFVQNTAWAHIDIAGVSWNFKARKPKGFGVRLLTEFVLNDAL

Cytochrome P450 3A4 = Cytochrome P450 3A4 (Homo sapiens, UniProt P08684);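 note: CYP3A4 tested as one member of a cytochrome P450 panel screen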
Cytochrome P450 2C19 = Cytochrome P450 2C19 (Homo sapiens, UniProt P33261); assay: Cytochrome panel assay with activity outcomes. Panel member name: p450-cyp2c19 Compounds with AC50 equal or less than 10 uM are considered active; type: functional; details: read-out: AC50
Cytochrome P450 1A2 = target: T5, Cytochrome P450 1A2 (Homo sapiens, UniProt P05177);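 note: PubChem cytochrome P450 panel assay, CYP1A2 panel member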
T5 sequence (P05177 whole entry): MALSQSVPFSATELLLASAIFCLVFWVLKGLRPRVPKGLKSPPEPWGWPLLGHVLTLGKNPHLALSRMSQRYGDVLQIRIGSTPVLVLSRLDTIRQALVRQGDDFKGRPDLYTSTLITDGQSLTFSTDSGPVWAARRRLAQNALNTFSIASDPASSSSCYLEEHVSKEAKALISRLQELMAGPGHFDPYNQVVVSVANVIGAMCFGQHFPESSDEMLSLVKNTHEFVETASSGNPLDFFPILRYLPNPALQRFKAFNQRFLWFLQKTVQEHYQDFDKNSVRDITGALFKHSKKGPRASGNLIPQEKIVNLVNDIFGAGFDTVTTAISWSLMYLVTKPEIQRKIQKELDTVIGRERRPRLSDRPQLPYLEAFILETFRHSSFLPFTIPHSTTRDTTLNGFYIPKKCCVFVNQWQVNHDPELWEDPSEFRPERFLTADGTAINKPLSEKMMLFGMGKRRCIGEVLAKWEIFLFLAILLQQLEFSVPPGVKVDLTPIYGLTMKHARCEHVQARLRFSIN

[3] = inhibitors of intracellular T. cruzi replication, confirmation, NIH3T3 host cells, beta-gal luminescence (AID 2044); type: functional, cell-based;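 note: intracellular parasites grown in NIH/3T3 mouse fibroblasts as host cells; luminescent beta-galactosidase reporter signal from transgenic T. cruzi replicating inside host cells; inhibitors lower the luminescence signal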
[4] = cytotoxicity toward NIH3T3 fibroblasts, dose response, counter-screen, cell-based, ATP luminescence, mouse fibroblasts (AID 2010); type: functional;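 note: cells exposed to compound for about 90 hours before reading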
[5] = cytotoxicity in HEK-293T cells, dose response, cytotoxicity control for TCR NF-kB inhibitor project, luminescence, T-cell screen hits (AID 489026); type: functional, cell-based;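 note: cells exposed to compound about 14 hours before the viability readout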
cells [6] = type: functional, cell-based
cells [7] = type: functional, cell-based; remark: listed apart in the source
[8] = target: Glyceraldehyde-3-phosphate dehydrogenase (Homo sapiens, UniProt P04406)
[9] = A549 cell cytotoxicity, dose response, cytotoxicity control, plate reader, cherry-pick, antagonist series (AID 743412); type: functional, cell-based
[10] = target: T6, Alkaline phosphatase, tissue-nonspecific isozyme (Homo sapiens, UniProt P05186); assay: human TNAP enzyme inhibitors, SAR follow-up, biochemical, luminescent, dose response (AID 1056)
T6 sequence (P05186 whole entry): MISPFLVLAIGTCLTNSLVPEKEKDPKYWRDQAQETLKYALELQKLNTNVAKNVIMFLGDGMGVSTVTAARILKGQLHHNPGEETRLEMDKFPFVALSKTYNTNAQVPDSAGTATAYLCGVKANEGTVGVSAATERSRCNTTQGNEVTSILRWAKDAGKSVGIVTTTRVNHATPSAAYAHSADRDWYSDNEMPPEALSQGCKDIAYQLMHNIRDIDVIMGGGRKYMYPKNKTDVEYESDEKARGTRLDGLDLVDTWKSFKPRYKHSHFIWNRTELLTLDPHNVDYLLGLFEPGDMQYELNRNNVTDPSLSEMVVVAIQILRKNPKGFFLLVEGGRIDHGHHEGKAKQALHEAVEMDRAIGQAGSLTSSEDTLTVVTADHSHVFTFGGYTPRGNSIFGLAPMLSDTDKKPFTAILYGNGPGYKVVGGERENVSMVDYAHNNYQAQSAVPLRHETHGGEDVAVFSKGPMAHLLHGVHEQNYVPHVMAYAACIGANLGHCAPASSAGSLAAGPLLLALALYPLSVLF

Cytochrome P450 3A4, sequence (P08684 whole entry): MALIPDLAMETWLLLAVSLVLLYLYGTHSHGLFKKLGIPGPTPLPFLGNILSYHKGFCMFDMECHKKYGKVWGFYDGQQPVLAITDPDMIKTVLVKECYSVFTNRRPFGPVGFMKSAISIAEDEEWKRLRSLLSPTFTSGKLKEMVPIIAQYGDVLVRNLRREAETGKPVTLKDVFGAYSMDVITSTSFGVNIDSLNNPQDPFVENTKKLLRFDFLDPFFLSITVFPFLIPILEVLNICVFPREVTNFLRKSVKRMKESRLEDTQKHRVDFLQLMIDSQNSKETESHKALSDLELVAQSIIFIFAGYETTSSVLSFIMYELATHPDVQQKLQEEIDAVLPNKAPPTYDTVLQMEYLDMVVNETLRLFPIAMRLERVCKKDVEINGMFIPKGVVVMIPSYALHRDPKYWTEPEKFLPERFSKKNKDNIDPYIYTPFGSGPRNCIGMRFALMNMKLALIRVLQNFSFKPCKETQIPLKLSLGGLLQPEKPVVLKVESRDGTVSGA
Glyceraldehyde-3-phosphate dehydrogenase, sequence (P04406 whole entry): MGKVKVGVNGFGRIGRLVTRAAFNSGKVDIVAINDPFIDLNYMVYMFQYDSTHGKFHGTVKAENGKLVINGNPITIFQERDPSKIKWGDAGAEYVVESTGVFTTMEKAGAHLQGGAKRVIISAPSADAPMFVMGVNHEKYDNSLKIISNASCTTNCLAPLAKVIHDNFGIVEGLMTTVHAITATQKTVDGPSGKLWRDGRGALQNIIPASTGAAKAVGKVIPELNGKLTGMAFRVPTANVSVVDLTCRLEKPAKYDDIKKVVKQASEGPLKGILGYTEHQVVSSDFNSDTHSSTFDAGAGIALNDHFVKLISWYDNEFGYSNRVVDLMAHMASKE
Cytochrome P450 2C19, sequence (P33261 whole entry): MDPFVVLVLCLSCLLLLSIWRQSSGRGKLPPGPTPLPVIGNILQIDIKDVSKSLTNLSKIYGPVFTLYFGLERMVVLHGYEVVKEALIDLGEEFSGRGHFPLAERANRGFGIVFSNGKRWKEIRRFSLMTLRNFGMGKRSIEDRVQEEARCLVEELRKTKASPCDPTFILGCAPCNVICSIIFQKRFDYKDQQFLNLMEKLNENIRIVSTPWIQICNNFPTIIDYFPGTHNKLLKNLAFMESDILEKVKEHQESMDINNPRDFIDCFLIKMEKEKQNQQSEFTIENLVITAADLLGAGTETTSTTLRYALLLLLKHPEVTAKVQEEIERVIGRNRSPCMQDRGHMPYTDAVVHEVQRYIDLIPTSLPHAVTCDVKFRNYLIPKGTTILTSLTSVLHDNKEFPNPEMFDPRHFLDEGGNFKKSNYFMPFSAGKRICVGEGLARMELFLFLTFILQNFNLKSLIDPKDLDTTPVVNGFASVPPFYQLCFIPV

CN(C(=O)CSc1nc(-c2ccc(C(C)(C)C)cc2)c(C#N)c(=O)[nH]1)C1CCCCC1
EC50 (Streptokinase A): > 150 µM (not active)
AC50 [1]: 12.6 µM (active)
EC50 [2]: 9.44 µM (active)

Cc1cc(C(=O)OCC(=O)N2C(C)CCCC2C)c(C)o1 (stereo not given)
IC50 (Leucine aminopeptidase): 14.3 µM (active)

O=C(Oc1ccccc1)N1CCC2(CC1)CN(c1ccccc1)C2
AC50 (Cytochrome P450 3A4): inconclusive
AC50 (Cytochrome P450 2C19): 15.8 µM (inconclusive)
AC50 (Cytochrome P450 1A2): 15.8 µM (inconclusive)

CC1=C(C)CC(C(=O)Nc2nc(-c3ccc(C)cc3C)c(C)s2)C(C(=O)O)C1 (stereo not given)
IC50 (Leucine aminopeptidase): 3.71 µM (active)

CN1/C(=C\C(=O)C[n+]2ccc3ccccc3c2)C(C)(C)c2ccccc21
EC50 [3]: 0.505 µM (active)
EC50 [4]: > 60 µM (not active)
IC50 [5]: > 80 µM (inactive)
EC50 [2]: 5.31 µM (active)

CC(C)N(C(C)C)S(=O)(=O)c1ccc(N2CCc3ccccc3C2)nc1
EC50 (cells [6]): > 350 µM (not active)
EC50 (cells [7]): > 350 µM (not active)

CC(C)Nc1ccc(C(CC(N)=O)NC(=O)c2ccc(Br)cc2)cc1[N+](=O)[O-] (stereo not given)
IC50 [5]: > 80 µM (inactive)

COC(=O)C1Nc2cc(C(F)(F)F)ccc2S(=O)(=O)N1 (stereo not given)
IC50 [8]: > 100 µM (not active)

C[C@@H]1CN([C@@H](C)CO)S(=O)(=O)c2ccc(C3=CCCC3)cc2O[C@H]1CN(C)C(=O)c1ccccc1
AC50 [9]: 38.9 µM (active)

O=C(CCNC(=O)Cn1ccc2ccccc2c1=O)NCCCN1CCN(c2ccc(F)cc2)CC1
AC50 (Cytochrome P450 3A4): inconclusive

COc1ccc(NC(=O)N2CCC3(CC2)CCN(C(=O)c2cccn2C)CC3)cc1
AC50 (Cytochrome P450 3A4): inconclusive

CCc1ccc(-c2cc(C(=O)O)[nH]n2)cc1
IC50 [8]: > 100 µM (not active)
IC50 [10]: 17.6 µM (active)

COc1ccc(N2CCN(C(=O)C3COc4ccccc4O3)CC2)cc1 (stereo not given)
EC50 (cells [6]): > 350 µM (not active)
EC50 (cells [7]): > 350 µM (not active)

COc1ccc(Cl)c(OC)c1C(=O)NC(=O)Nc1c(F)cc(F)cc1F
EC50 (cells [6]): > 350 µM (not active)
EC50 (cells [7]): > 350 µM (not active)
